The subject of data set [1] is ovariectomised mature rats. The data set can be described thus: Prevention of bone loss in ovariectomised mature rats. Type of data set: in vivo, rat. The settings on record: % prevention of bone loss versus vehicle treated animals. An excerpt:
Prevention of bone loss in ovariectomised mature rats. The methodology employed is based on that described by Wronsky et al. [J. Bone Min. Res., 6, 387 (1991)]. The bone loss, prevalently cancellous, occuring after the surgery is monitored by dual emission X-ray absorptiometry (DEXA) measurements of bone mineral density (BMD) of long bones and by HPLC measurements of urinary levels of products of bone collagen breakdown, such as the cross-link residues pyridinoline (PYD), deoxypyridinoline (DPD) and lysine glycosides, i.e. galactosyl-hydroxylysine (GHYL) and glucosyl-galactosyl-hydroxylysine (GGHYL). Groups of 7-10 female Sprague-Dawley rats, about 90 days old and weighing 200-250 g are used. Rats are anesthetised by sodium pentobarbital (35 mg/kg i.v.), laparotomy is performed and ovaries are bilaterally removed. Wounds are adequately disinfected and sutured. A group is sham operated. […] Before and at the end of the experimental period, the bone metaphyseal mineral densities of left distal femur and proximal tibia were evaluated in vivo using lightly anaesthetised animals. Results are expressed as % of prevention of bone loss versus vehicle treated animals, using the following equation, where BMD indicates the bone mineral density at the end of the experimental period and is expressed as the percent of pre-ovariectomy baseline: [formula] […]

For a further data set, the system named is human osteoclasts. The data set can be described thus: Human Osteoclast Resorption Assay. As to conditions: human osteoclasts on bone slices. The class given is cell-based. As for the experimental part: 1) Bone resorption by disaggregated rat osteoclasts can be assessed as described previously in the literature [T. J. Chambers et al., Endocrinology, 1985, 116, 234]. Briefly, osteoclasts were mechanically disaggregated from neonatal rat long bones into Hepes-buffered medium 199 (Flow, UK). The suspension was agitated with a pipette, and the larger fragments were allowed to settle for 30 sec. The cells were then added to two wells of a multiwell dish containing bone slices (each measuring 12 mm^2). After 15 min at 37° C. the bone slices were removed, washed in medium 199 and placed in individual wells of a 96-well plate. […] The number of osteoclasts and bone resorption were quantified by confocal laser scanning microscopy (CLSM): the bone slices were fixed with 2% glutaraldehyde in 0.2 M cacodylate buffer and the osteoclasts on each bone slice were stained for tartrate-resistant acid phosphatase. […] The number and the size of the osteoclastic excavations, the plain area and the volume of bone resorbed was recorded. Results were expressed as mean pit number per bone slice, mean pit number per osteoclast, mean area per osteoclast or mean volume per osteoclast.
2) Bone resorption by human osteoclasts can be assessed using a modification of the method above. […] Bone slices were then treated and analysed as described above for the rat osteoclast assay.

Data set [2] has as its target bafilomycin-sensitive ATPase in chicken osteoclasts (Gallus gallus, UniProt A0A8V0Z1D5+Q9I8C8). The data set can be described thus: Inhibition of bafilomycin-sensitive ATPase in chicken osteoclasts. The class given is biochemical. As for the experimental part:
Vesicles were prepared from medullar bone obtained from tibiae and femurs of egg-laying hens which were calcium-starved for at least 15 days. Briefly, bone fragments were scraped with a 24 scalpel blade, suspended in 40 ml of isolation medium (0.2 M sucrose, 50 mM KCl, 10 mM Hepes, 1 mM EGTA, 2 mM dithiotheitrol, pH 7.4) and filtered through a 100 μm pore size nylon mesh. The whole procedure was performed at 4° C. After homogenisation in a potter (20 strokes) in 40 ml of isolation medium an initial centrifugation (6,500×gmax×20 min) was performed to remove mitochondria and lysosomes. The supernatant was centrifuged at 100,000×gmax for 1 hr and the pellet was collected in 1 ml of isolation medium, divided into 200 μl aliquots, immediately frozen in liquid nitrogen and stored at −80° C. The protein content was determined using a Biorad colourimetric kit according to Bradford [M. Bradford, Anal. Biochem., 72, 248 (1976)]. For the proton transport assay, 5-10 μl of membranes were used.
Purification of osteoclast membranes. 1 ml of crude microsomal vesicles prepared above were applied (about 0.2 ml per tube) on the top of a sucrose step-gradient consisting of 3.5 ml of 15%, 30% and 45% (w/w) sucrose in isolation medium and centrifuged at 280,000 gmax for 2 hours (SW 41 Ti rotor). After centrifugation the 30-45% sucrose interfaces were collected, diluted approx. 20-fold in isolation medium and pelletted at 100,000 gmax for 1 hour (SW 28 rotor). The pellet was then resuspended in 1 ml of isolation medium, aliquoted and frozen in liquid N2 and stored at −80° C. until used.
Inhibition of bafilomycin-sensitive ATPase activity was assessed in purified membrane vesicles by measuring the release of inorganic phosphate (Pi) during 30 min of incubation at 37° C. in a 96-well plate either in the presence or in the absence of bafilomycin A1. The reaction medium contained 1 mM ATP, 10 mM HEPES-Tris pH 8, 50 mM KCl, 5 uM valinomycin, 5 uM nigericin, 1 mM CDTA-Tris, 100 uM ammonium molybdate, 0.2 M sucrose and membranes (20 ug protein/ml). The reaction was initiated by MgSO4 (8-arm pipette) and stopped, after 30 min, by addition of 4 volumes of the malachite green reagent (96-arm pipette) prepared according to Chan [Anal. Biochem. 157, 375 (1986)]. Absorbance at 650 nm was measured after 2 min using a microplate reader. Results are expressed as μmol (Pi)×mg protein^−1×hour^−1 and, for each experiment, represent the mean±sem of triplicates.

The test system of the next data set is osteoclast proton pump. As to conditions: avian osteoclast membrane vesicles; cited from earlier work.
The test system of the next data set is osteoclast cultures. The settings on record: cited from earlier work.
Where [3] appears, read: chicken osteoclast membranes, read-out: IC50 (nM) ATPase assay.
Where [4] appears, read: read-out: IC50 (nM) ATPase assay, chicken osteoclast membranes.

Where a name gives a salt, the structure may show the parent alone. Read-outs that look alike come from different tables or passages of the source.

This is an account of results in patent US6903117B2, “Indole derivatives for the treatment of osteoporosis” (Nikem Research S.R.L., priority 1996, dated 2005).

As usually defined, the melting point is the temperature, or range, at which the solid turns liquid. In general, IC50 refers to the concentration that gives 50% inhibition.

Chain of bafilomycin-sensitive ATPase in chicken osteoclasts (Q9I8C8 entry or part of it): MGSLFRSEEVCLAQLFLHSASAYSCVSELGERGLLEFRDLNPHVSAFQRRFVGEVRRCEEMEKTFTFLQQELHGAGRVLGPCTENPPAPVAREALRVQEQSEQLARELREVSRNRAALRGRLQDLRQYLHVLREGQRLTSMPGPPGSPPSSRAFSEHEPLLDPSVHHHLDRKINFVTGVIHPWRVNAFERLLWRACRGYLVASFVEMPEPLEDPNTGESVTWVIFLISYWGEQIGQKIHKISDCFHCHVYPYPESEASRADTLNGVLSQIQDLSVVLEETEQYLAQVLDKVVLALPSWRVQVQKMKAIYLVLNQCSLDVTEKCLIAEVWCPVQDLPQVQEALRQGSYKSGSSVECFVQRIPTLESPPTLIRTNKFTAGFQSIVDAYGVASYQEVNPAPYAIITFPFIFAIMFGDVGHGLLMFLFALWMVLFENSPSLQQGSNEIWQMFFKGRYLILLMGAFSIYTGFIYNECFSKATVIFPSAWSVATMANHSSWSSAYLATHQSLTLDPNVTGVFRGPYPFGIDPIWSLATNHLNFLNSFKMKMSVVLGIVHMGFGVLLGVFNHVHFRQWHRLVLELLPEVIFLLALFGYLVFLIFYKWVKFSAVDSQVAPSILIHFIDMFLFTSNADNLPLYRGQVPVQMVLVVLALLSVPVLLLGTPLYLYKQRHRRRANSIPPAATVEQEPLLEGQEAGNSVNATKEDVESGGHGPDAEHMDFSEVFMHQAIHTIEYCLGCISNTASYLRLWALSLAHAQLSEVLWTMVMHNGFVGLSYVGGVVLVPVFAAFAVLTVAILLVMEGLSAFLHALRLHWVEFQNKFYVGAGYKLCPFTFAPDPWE
Chain of bafilomycin-sensitive ATPase in chicken osteoclasts (P49712 whole entry, further chain, the tested form may be a part): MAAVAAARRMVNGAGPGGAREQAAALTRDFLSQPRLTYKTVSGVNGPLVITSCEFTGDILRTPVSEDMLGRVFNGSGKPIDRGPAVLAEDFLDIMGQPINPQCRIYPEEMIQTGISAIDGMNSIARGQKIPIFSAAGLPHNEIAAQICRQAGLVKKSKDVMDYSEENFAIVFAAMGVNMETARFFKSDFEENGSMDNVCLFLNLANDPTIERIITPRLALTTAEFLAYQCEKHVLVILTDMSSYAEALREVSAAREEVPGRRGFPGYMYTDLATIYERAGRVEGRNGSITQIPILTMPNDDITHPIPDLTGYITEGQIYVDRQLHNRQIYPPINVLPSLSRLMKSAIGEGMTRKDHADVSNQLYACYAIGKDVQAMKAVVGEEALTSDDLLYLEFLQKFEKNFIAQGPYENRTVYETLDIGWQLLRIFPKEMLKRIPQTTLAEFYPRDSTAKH
Chain of bafilomycin-sensitive ATPase in chicken osteoclasts (Q5ZHL0 whole entry, further chain, the tested form may be a part): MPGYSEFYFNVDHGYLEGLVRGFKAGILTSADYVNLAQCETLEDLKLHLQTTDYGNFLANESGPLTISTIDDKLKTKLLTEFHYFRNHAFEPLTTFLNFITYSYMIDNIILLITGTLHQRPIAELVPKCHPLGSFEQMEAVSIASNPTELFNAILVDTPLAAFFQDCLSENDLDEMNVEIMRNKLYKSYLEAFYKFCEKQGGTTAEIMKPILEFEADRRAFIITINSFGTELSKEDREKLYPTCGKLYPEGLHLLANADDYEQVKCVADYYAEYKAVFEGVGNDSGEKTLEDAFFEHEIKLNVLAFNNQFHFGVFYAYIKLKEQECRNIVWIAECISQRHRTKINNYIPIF
Chain of bafilomycin-sensitive ATPase in chicken osteoclasts (Q90647 whole entry, further chain, the tested form may be a part): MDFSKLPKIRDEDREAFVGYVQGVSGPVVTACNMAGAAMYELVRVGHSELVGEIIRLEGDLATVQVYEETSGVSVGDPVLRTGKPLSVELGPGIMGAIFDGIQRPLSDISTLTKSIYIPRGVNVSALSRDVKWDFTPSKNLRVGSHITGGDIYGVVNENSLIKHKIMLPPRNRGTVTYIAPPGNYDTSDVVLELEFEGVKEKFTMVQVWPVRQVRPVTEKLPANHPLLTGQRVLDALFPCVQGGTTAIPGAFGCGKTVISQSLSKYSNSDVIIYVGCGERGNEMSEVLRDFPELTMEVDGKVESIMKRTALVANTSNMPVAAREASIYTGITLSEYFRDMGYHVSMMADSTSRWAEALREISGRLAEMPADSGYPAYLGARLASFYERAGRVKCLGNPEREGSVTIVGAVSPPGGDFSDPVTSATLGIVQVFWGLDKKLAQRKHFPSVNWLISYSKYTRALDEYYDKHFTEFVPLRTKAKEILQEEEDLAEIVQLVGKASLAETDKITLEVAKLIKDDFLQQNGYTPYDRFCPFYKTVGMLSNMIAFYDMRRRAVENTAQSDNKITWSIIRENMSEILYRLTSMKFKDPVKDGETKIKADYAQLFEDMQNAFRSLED
Chain of bafilomycin-sensitive ATPase in chicken osteoclasts (A0A8V0Z1D5 entry or part of it): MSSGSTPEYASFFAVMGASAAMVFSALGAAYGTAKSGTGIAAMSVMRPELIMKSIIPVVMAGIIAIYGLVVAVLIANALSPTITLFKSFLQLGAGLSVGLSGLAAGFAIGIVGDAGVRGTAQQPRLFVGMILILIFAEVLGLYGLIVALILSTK

`COC(=CC=Cc1cc2cc(Cl)c(Cl)cc2[nH]1)C(=O)NCCCN1C(C)CN(c2ncccn2)CC1C` (stereo not shown) (as salt: hydrochloride) [Example 62, (2Z,4E)-5-(5,6-Dichloro-1H-indol-2-yl)-N-[3-[2,6-dimethyl-4-(2-pyrimidinyl)plperazin-1-yl]propyl]-2-methoxy-2,4-pentadienamide hydrochloride]: the melting point is 245 °C.

With `CO/C(=C\C=C\c1cc2cc(Cl)c(Cl)cc2[nH]1)C(=O)NC1CC(C)(C)N(C)C(C)(C)C1` [Example 1, (2Z,4E)-5-(5,6-Dichloro-1H-indol-2-yl)-2-methoxy-N-(1,2,2,6,6-pentamethylpiperidin-4-yl)-2,4-pentadienamide], the “Protection of bone loss in ovariectomised mature rats at 10 mg/kg p.o.” value in data set [1] was found to be 76%. In addition, the IC50 in the data set with human osteoclasts stood at 3.4 nM; in data set [2] (setting [3]), 24 nM. `CO/C(=C\C=C\c1cc2cc(Cl)c(Cl)cc2[nH]1)C(=O)NC1CCCC(N(C)C)C1` (stereo not shown) [Example 61, (2Z,4E)-5-(5,6-Dichloro-1H-indol-2-yl)-N-(3-dimethylamino-cyclohexyl)-2-methoxy-2,4-pentadienamide] displayed a melting point of 200 to 201 °C. The IC50 in data set [2] (setting [3]) turned out to be 41 nM. `COC(=CC=Cc1cc2cc(Cl)c(Cl)cc2[nH]1)C(=O)NCCCN1C(C)CN(c2ncccn2)CC1C` (stereo not shown) [Example 62, (2Z,4E)-5-(5,6-Dichloro-1H-indol-2-yl)-N-[3-[2,6-dimethyl-4-(2-pyrimidinyl)plperazin-1-yl]propyl]-2-methoxy-2,4-pentadienamide hydrochloride]: in data set [2] (setting [3]), the IC50 stood at 30 nM.

With `CO/C(=C\C=C\c1cc2cc(Cl)c(Cl)cc2[nH]1)C(=O)NCCCN1CCN(c2ccccc2)CC1` [Example 64, (2Z,4E)-5-(5,6-Dichloro-1H-indol-2-yl)-2-methoxy-N-(3-[-4-(phenyl)piperazin-1-yl]propyl] 2,4-pentadienamide], the melting point is 223 to 225 °C. The IC50 in data set [2] (setting [4]) turned out to be 67 nM. On the same counts, the results for `CO/C(=C\C=C\c1cc2cc(Cl)c(Cl)cc2[nH]1)C(=O)NCCCN1CCN(c2cccc(Cl)c2)CC1` [Example 68, (2Z,4E)-5-(5,6-Dichloro-1H-indol-2-yl)-N-[3-[-4-(3-chlorophenyl)piperazin-1-yl]propyl]-2-methoxy-2,4 pentadienamide] are 192 to 193 °C and 18 nM. Consider `CO/C(=C\C=C\c1cc2cc(Cl)c(Cl)cc2[nH]1)C(=O)NCCCN1CCCN(c2ncccn2)CC1` [Example 74, (2Z,4E)-5-(5,6-Dichloro-1H-indol-2-yl)-N-[3-[4-(2-pyrimidinyl)homopiperazin-1-yl]propyl]-2-methoxy-2,4-pentadienamide], for which the melting point lay within 220 to 222 °C. For the same compound, in data set [2] (setting [3]), the IC50 was 42 nM. Take `CO/C(=C\C=C\c1cc2cc(Cl)c(Cl)cc2[nH]1)C(=O)NCCCN1CCN(c2ccccn2)CC1` [Example 75, (2Z,4E)-5-(5,6-Dichloro-1H-indol-2-yl)-N-[3-[4-(2-pyridyl)piperazin-1-yl]propyl]-2-methoxy-2,4-pentadienamide]: the melting point fell in the range of 219 to 220 °C. In addition, the IC50 in data set [2] (setting [3]) came out at 30 nM. For `CCN1C(=O)C=CC1=O` [N-ethylmaleimide], in the data set with osteoclast proton pump, the “inhibition of proton transport by the osteoclast proton pump” value (“inhibition of proton transport” below) was “inhibited”. Turning to `Cc1nc2c(OCc3ccccc3)cccn2c1CC#N` [SCH 28080], the “inhibition of proton transport” value in the data set on osteoclast proton pump is recorded as “not inhibited”. For `CO/C1=C\C(C)=C\[C@@H](C)[C@@H](O)[C@@H](C)C/C(C)=C/C=C/[C@H](OC)[C@@H]([C@@H](C)[C@@H](O)[C@H](C)[C@@]2(O)C[C@@H](O)[C@H](C)[C@@H](C(C)C)O2)OC1=O` [bafilomycin A1], the “inhibition of bone resorption in osteoclast cultures” value in the data set with osteoclast cultures is “able to inhibit”. Further, in the data set on osteoclast proton pump, the “inhibition of proton transport” value was “inhibited”. `C[C@@H]1O[C@@H](O[C@H]2C[C@@H](O)[C@]3(CO)[C@H]4[C@H](O)C[C@]5(C)[C@@H](C6=CC(=O)OC6)CC[C@]5(O)[C@@H]4CC[C@]3(O)C2)[C@H](O)[C@H](O)[C@H]1O` [ouabain]: in the data set on osteoclast proton pump, the “inhibition of proton transport” value is recorded as “not inhibited”.

For `[Na+].[Na+].[Na+].[O]=[V]([O-])([O-])[O-]` [sodium orthovanadate], in the data set with osteoclast proton pump, the “inhibition of proton transport” value was “not inhibited”. Take “(2Z,4E)-5-(5,6-Dichloro-1H- indol-2-yl)-N-(2a beta, 4a alpha, 6 beta, 7a alpha- decahydro-pyrrolo[2.1.5- cd]indolizyn-6-yl)-2- methoxy-2,4- pentadienamide [Example 55]”: the half-maximal inhibitory concentration (IC50) in data set [2] (setting [3]) stood at 23 nM.
